≈ marks a conversion by molar mass, not a printed value.
Tests used:
[1] = system: super sensitive Gram-negative Escherichia coli (E. coli) BAS849; test: Antibacterial activity, microbroth dilution MIC, E. coli BAS849; type: cell-based; conditions: Escherichia coli; E. coli BAS849, microbroth dilution; read-out: MIC, BAS849
[2] = system: Haemophilus influenzae (H. influenzae) 49247; test: Antibacterial activity, MIC, H. influenzae 49247; type: cell-based; conditions: Haemophilus influenzae; H. influenzae 49247; read-out: MIC 49247
Text: The antibacterial activity from a microbroth dilution method may be presented as the minimum inhibitory concentration (MIC in […]). The MIC value is the lowest concentration of a drug which prevents macroscopically visible bacterial growth under test conditions.
Antibacterial activity of test compounds against the Gram-negative bacteria Haemophilus influenzae (H. influenzae) 49247, Moraxella catarrhalis (M. catarrhalis) 25238 and Neisseria meningitidis (N. meningitidis) 13090 is shown in Table 6.

[3] = system: control Gram-negative E. coli 25922 strain; test: Antibacterial activity, microbroth dilution MIC, E. coli 25922; type: cell-based, Escherichia coli; conditions: Escherichia coli; E. coli 25922, microbroth dilution; read-out: MIC, 25922
[4] = system: Neisseria meningitidis (N. meningitidis) 13090; test: Antibacterial activity, MIC, N. meningitidis 13090; type: cell-based; conditions: Neisseria meningitidis; N. meningitidis 13090; read-out: MIC 13090
[5] = system: Gram-positive Staphylococcus aureus (S. aureus) 29213; test: Antibacterial activity, microbroth dilution MIC, S. aureus 29213; type: cell-based; conditions: Staphylococcus aureus; S. aureus 29213, microbroth dilution; read-out: MIC, 29213
[6] = system: Moraxella catarrhalis (M. catarrhalis) 25238; test: Antibacterial activity, MIC, M. catarrhalis 25238; type: cell-based; conditions: Moraxella catarrhalis, M. catarrhalis 25238; read-out: MIC 25238

Row | Compound | MIC [1] [µg/mL] | MIC [2] [µg/mL] | MIC [3] [µg/mL] | MIC [4] [µg/mL] | MIC [5] [µg/mL] | MIC [6] [µg/mL]
1 | CN(C)c1ccc(-c2[nH]c(=O)c(C(=O)O)cc2C(=O)O)cc1 [Cpd 11, 6-[4-(dimethylamino)phenyl]-2-oxo-1,2-dihydropyridine-3,5-dicarboxylic acid] | 12.5 to 150 (≈ 41.4 to 496 µM) | < 1 | 12.5 to 150 (≈ 41.4 to 496 µM) | 12.5 to 150 (≈ 41.4 to 496 µM) | 12.5 to 150 (≈ 41.4 to 496 µM) | 12.5 to 150 (≈ 41.4 to 496 µM)
2 | CCc1cc(C(=O)O)c(=O)[nH]c1-c1ccc(N2CCC[C@H]2C(F)(F)F)cc1 [Cpd 142, 5-ethyl-2-oxo-6-{4-[(2S)-2-(trifluoromethyl)pyrrolidin-1-yl]phenyl}-1,2-dihydropyridine-3-carboxylic acid] | 1 to 3.5 (≈ 2.63 to 9.2 µM) | 3.5 to 12.5 (≈ 9.2 to 32.9 µM) | 12.5 to 150 (≈ 32.9 to 394 µM) | < 1 | 12.5 to 150 (≈ 32.9 to 394 µM) | 1 to 3.5 (≈ 2.63 to 9.2 µM)
3 | CCc1c(-c2ccc(NCCCI)cc2)[nH]c(=O)c(C(=O)O)c1O [Cpd 82, 5-ethyl-4-hydroxy-6-{4-[(3-iodopropyl)amino]phenyl}-2-oxo-1,2-dihydropyridine-3-carboxylic acid] | 3.5 to 12.5 (≈ 7.91 to 28.3 µM) | < 1 | 12.5 to 150 (≈ 28.3 to 339 µM) | < 1 | 1 to 3.5 (≈ 2.26 to 7.91 µM) | < 1
4 | CN(C)c1ccc(-c2[nH]c(=O)c(C(=O)O)c(O)c2C2CC2)cc1 [Cpd 13, 5-cyclopropyl-6-[4-(dimethylamino)phenyl]-4-hydroxy-2-oxo-1,2-dihydropyridine-3-carboxylic acid] | 1 to 3.5 (≈ 3.18 to 11.1 µM) | < 1 | 12.5 to 150 (≈ 39.8 to 477 µM) | < 1 | 3.5 to 12.5 (≈ 11.1 to 39.8 µM) | < 1
5 | CCc1cc(C(=O)O)c(=O)[nH]c1-c1ccc(N2CCCC2=O)cc1 [Cpd 114, 5-ethyl-2-oxo-6-[4-(2-oxopyrrolidin-1-yl)phenyl]-1,2-dihydropyridine-3-carboxylic acid] | 1 to 3.5 (≈ 3.06 to 10.7 µM) | < 1 | 12.5 to 150 (≈ 38.3 to 460 µM) | < 1 | 12.5 to 150 (≈ 38.3 to 460 µM) | < 1
6 | Cc1cc(C(=O)O)c(=O)[nH]c1-c1ccc(N2CCOCC2)c(F)c1 [Cpd 89, 6-[3-fluoro-4-(morpholin-4-yl)phenyl]-5-methyl-2-oxo-1,2-dihydropyridine-3-carboxylic acid] | 12.5 to 150 (≈ 37.6 to 451 µM) | < 1 | 12.5 to 150 (≈ 37.6 to 451 µM) | 12.5 to 150 (≈ 37.6 to 451 µM) | 12.5 to 150 (≈ 37.6 to 451 µM) | 12.5 to 150 (≈ 37.6 to 451 µM)
7 | CCCc1c(-c2ccc(N(C)C)cc2)[nH]c(=O)c(C(=O)O)c1O [Cpd 9, 6-[4-(dimethylamino)phenyl]-4-hydroxy-2-oxo-5-propyl-1,2-dihydropyridine-3-carboxylic acid] | < 1 | < 1 | 12.5 to 150 (≈ 39.5 to 474 µM) | < 1 | 1 to 3.5 (≈ 3.16 to 11.1 µM) | < 1
8 | CCc1cc(C(=O)O)c(=O)[nH]c1-c1ccc(N2CCCC2c2ccccc2)cc1 (stereo not drawn) [Cpd 145, 5-ethyl-2-oxo-6-[4-(2-phenylpyrrolidin-1-yl)phenyl]-1,2-dihydropyridine-3-carboxylic acid] | < 1 | < 1 | 12.5 to 150 (≈ 32.2 to 386 µM) | < 1 | 1 to 3.5 (≈ 2.57 to 9.01 µM) | < 1
9 | CN(C)c1ccc(-c2[nH]c(=O)c(C(=O)O)cc2CN)cc1.Cl [Cpd 22, 5-(aminomethyl)-6-[4-(dimethylamino)phenyl]-2-oxo-1,2-dihydropyridine-3-carboxylic acid hydrochloride] | 12.5 to 150 | 12.5 to 150 | 12.5 to 150 | 3.5 to 12.5 | 12.5 to 150 | 12.5 to 150
10 | CCc1cc(C(=O)O)c(=O)[nH]c1-c1ccc(N2CCCC2c2nccs2)cc1 (stereo not drawn) [Cpd 156, 5-ethyl-2-oxo-6-{4-[2-(1,3-thiazol-2-yl)pyrrolidin-1-yl]phenyl}-1,2-dihydropyridine-3-carboxylic acid] | < 1 | < 1 | 12.5 to 150 (≈ 31.6 to 379 µM) | < 1 | 12.5 to 150 (≈ 31.6 to 379 µM) | < 1
11 | CN(C)c1ccc(-c2[nH]c(=O)c(C(=O)O)cc2C#N)cc1 [Cpd 14, 5-cyano-6-[4-(dimethylamino)phenyl]-2-oxo-1,2-dihydropyridine-3-carboxylic acid] | 12.5 to 150 (≈ 44.1 to 529 µM) | < 1 | 12.5 to 150 (≈ 44.1 to 529 µM) | 12.5 to 150 (≈ 44.1 to 529 µM) | 12.5 to 150 (≈ 44.1 to 529 µM) | 12.5 to 150 (≈ 44.1 to 529 µM)

From patent publication US9650395B2, “Antibacterial compounds and methods for use” (PTC Therapeutics, Inc., priority 2011, dated 2017)
